Results as given in patent US20260274814A1, “THIENYL COMPOUNDS FOR THE TREATMENT OF A CENTRAL NERVOUS SYSTEM DISEASE OR DISORDER” (Coreterra Therapeutics, Inc., priority 2023, published 2026).
Structures can show the parent of a compound that is named as a salt.

System: mice
Assay: Neuropharmacological Assay (SmartCube): automated behavioral signature of compound-treated mice compared with a database of reference drug classes
Format: in vivo
Details: for minimal effective dose: Mus musculus, ip, read-out: MED; for minimal effective dose / MED: minimal effective dose: dose having 45% or more total activity in SmartCube, i.p., if only one dose was tested, that dose is shown; for AD / AG / AN / AX / CE / HL / MS / PS / SH / AP / UK: SmartCube probability class, 3.0 mg/kg dose, i.p. 15 min before the behavioral test
Procedure, shortened: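 i.p. dosing 15 min pre-test (NMP/PEG/propylene glycol vehicle); 3 doses, 3.0 mg/kg reported. Output = class-match probability per behavioural effect. Potency runs 0.3, 1, 3, 10 mpk (range adjusted as needed); MED = dose with ≥45% total activity.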

Cc1csc2c1OCC(N)C2 (single isomer, unassigned) [Compound 295, 3-methyl-6,7-dihydro-5H-thieno[3,2-b]pyran-6-amine hydrochloride]
+++ (≥49%): AP (hydrochloride, 3 mg/kg)
ND (^ <4%): AD | AG | AN | AX | CE | HL | MS | PS | SH | UK (hydrochloride, 3 mg/kg)
3 mg/kg: minimal effective dose

Cc1csc2c1OCC(N)C2 (single isomer, unassigned) [Compound 296, 3-methyl-6,7-dihydro-5H-thieno[3,2-b]pyran-6-amine hydrochloride]
>3 mpk: MED (hydrochloride)
+ (≥4%): UK (hydrochloride, 3 mg/kg)
ND (^ <4%): AD | AG | AN | AX | CE | HL | MS | PS | SH | AP (hydrochloride, 3 mg/kg)

CNC1COc2c(C)csc2C1 (single isomer, unassigned) [Compound 297, N, 3-dimethyl-6,7-dihydro-5H-thieno[3,2-b]pyran-6-amine hydrochloride]
3 mg/kg: minimal effective dose
ND (^ <4%): AD | AG | AN | AP | CE | HL | MS | PS | SH | UK | AX (hydrochloride, 3 mg/kg)

CNC1COc2c(C)csc2C1 (single isomer, unassigned) [Compound 298, N, 3-dimethyl-6,7-dihydro-5H-thieno[3,2-b]pyran-6-amine hydrochloride]
+++ (≥49%): AX (hydrochloride, 3 mg/kg)
3 mpk: MED
ND (^ <4%): AD | AG | AN | AP | CE | HL | MS | PS | SH | UK

CNC1COc2c(C(F)(F)F)csc2C1 (single isomer, unassigned) [Compound 309, N-methyl-3-(trifluoromethyl)-6,7-dihydro-5H-thieno[3,2-b]pyran-6-amine hydrochloride]
1 mpk: MED (hydrochloride)
ND (^ <4%): AD | AG | AN | AP | AX | CE | HL | MS | PS | SH | UK (hydrochloride, 3 mg/kg)

CNC1COc2c(C(F)(F)F)csc2C1 (single isomer, unassigned) [Compound 310, N-methyl-3-(trifluoromethyl)-6,7-dihydro-5H-thieno[3,2-b]pyran-6-amine hydrochloride]
++ (≥24%): UK (hydrochloride, 3 mg/kg)
>3 mpk: MED (hydrochloride)
ND (^ <4%): AD | AG | AN | AP | AX | CE | HL | MS | PS | SH

N#Cc1scc2c1CC(N)CC2 (single isomer, unassigned) [Compound 312, 6-amino-4,5,6,7-tetrahydro-2-benzothiophene-1-carbonitrile hydrochloride]
+++ (≥49%): UK (hydrochloride, 3 mg/kg)
3 mg/kg: minimal effective dose
ND (^ <4%): AD | AG | AN | AP | AX | CE | HL | MS | PS | SH

N#Cc1scc2c1CC(N)CC2 (single isomer, unassigned) [Compound 313, 6-amino-4,5,6,7-tetrahydro-2-benzothiophene-1-carbonitrile hydrochloride]
>3 mpk: MED (hydrochloride)
+ (≥4%): UK (hydrochloride, 3 mg/kg)
ND (^ <4%): AD | AG | AN | AP | AX | CE | HL | MS | PS | SH

CNC1Cc2scc(C(F)(F)F)c2C1 (single isomer, unassigned) [Compound 314, N-methyl-3-(trifluoromethyl)-5,6-dihydro-4H-cyclopenta[b]thiophen-5-amine hydrochloride]
ND (^ <4%): AD | AG | AN | CE | HL | MS | PS | SH | AP (hydrochloride, 3 mg/kg) | AX (hydrochloride, 3 mg/kg)
> 3 mg/kg: minimal effective dose
+ (≥4%): UK (hydrochloride, 3 mg/kg)

CNC1Cc2scc(C(F)(F)F)c2C1 (single isomer, unassigned) [Compound 315, N-methyl-3-(trifluoromethyl)-5,6-dihydro-4H-cyclopenta[b]thiophen-5-amine hydrochloride]
ND (^ <4%): AD | AG | AN | CE | HL | MS | PS | SH | UK (hydrochloride, 3 mg/kg)
3 mpk: MED (hydrochloride)
++++ (≥74%): AX (hydrochloride, 3 mg/kg)
+ (≥4%): AP (hydrochloride, 3 mg/kg)

CNC1Cc2scc(C)c2C1 (single isomer, unassigned) [Compound 316, N, 3-dimethyl-5,6-dihydro-4H-cyclopenta[b]thiophen-5-amine hydrochloride]
++++ (≥74%): AP (hydrochloride, 3 mg/kg)
3 mg/kg: minimal effective dose
ND (^ <4%): AD | AG | AN | HL | MS | PS | SH | UK | AX (hydrochloride, 3 mg/kg) | CE (hydrochloride, 3 mg/kg)

CNC1Cc2scc(C)c2C1 (single isomer, unassigned) [Compound 317, N, 3-dimethyl-5,6-dihydro-4H-cyclopenta[b]thiophen-5-amine hydrochloride]
ND (^ <4%): AD | AG | AN | HL | MS | PS | SH | UK
3 mpk: MED
+ (≥4%): AP (hydrochloride, 3 mg/kg) | CE (hydrochloride, 3 mg/kg)
+++ (≥49%): AX (hydrochloride, 3 mg/kg)

CNC1Cc2cc(C)sc2C1 (single isomer, unassigned) [Compound 318, N, 2-dimethyl-5,6-dihydro-4H-cyclopenta[b]thiophen-5-amine hydrochloride]
3 mg/kg: minimal effective dose
+++ (≥49%): UK (hydrochloride, 3 mg/kg)
ND (^ <4%): AD | AG | AN | HL | MS | PS | SH | CE (hydrochloride, 3 mg/kg)
+ (≥4%): AP (hydrochloride, 3 mg/kg) | AX (hydrochloride, 3 mg/kg)

CNC1Cc2cc(C)sc2C1 (single isomer, unassigned) [Compound 319, N, 2-dimethyl-5,6-dihydro-4H-cyclopenta[b]thiophen-5-amine hydrochloride]
3 mpk: MED
+ (≥4%): CE (hydrochloride, 3 mg/kg)
++++ (≥74%): AX (hydrochloride, 3 mg/kg)
ND (^ <4%): AD | AG | AN | HL | MS | PS | SH | AP (hydrochloride, 3 mg/kg) | UK (hydrochloride, 3 mg/kg)

CNC1Cc2scc(C3CC3)c2C1 (single isomer, unassigned) [Compound 320, 3-cyclopropyl-N-methyl-5,6-dihydro-4H-cyclopenta[b]thiophen-5-amine hydrochloride]
> 3 mg/kg: minimal effective dose
ND (^ <4%): AD | AG | AN | CE | HL | MS | PS | SH | AP (hydrochloride, 3 mg/kg) | AX (hydrochloride, 3 mg/kg)
++ (≥24%): UK (hydrochloride, 3 mg/kg)

CNC1Cc2scc(C3CC3)c2C1 (single isomer, unassigned) [Compound 321, 3-cyclopropyl-N-methyl-5,6-dihydro-4H-cyclopenta[b]thiophen-5-amine hydrochloride]
3 mpk: MED (hydrochloride)
+ (≥4%): AP (hydrochloride, 3 mg/kg)
ND (^ <4%): AD | AG | AN | CE | HL | MS | PS | SH | UK (hydrochloride, 3 mg/kg)
++++ (≥74%): AX (hydrochloride, 3 mg/kg)
